Experimental findings from patent publication US8481725B2, “Cycloalkylcarbonylamino acid derivative and process for producing the same” (Seikagaku Corporation, priority 2006, dated 2013) are described below.

SMILES strings stand for the structures. Starred links: 1 amine or outer side, 2 acyl side, 3 side chain; linkers in the order of their positions; H or OH if unused. Non-standard residues stand in square brackets, D forms with d. Residues, ends and D or L forms follow the SMILES beside them. *: point of attachment. Ac6c = NC1(C(=O)O)CCCCC1; Morpholide = C1CN(*)CCO1; Nle = CCCC[C@H](N)C(=O)O; Cbz = O=C(OCc1ccccc1)*; CO = O=C([*:1])[*:2]

Format in all cases: biochemical
The target of one experiment is T1, Cathepsin K (Oryctolagus cuniculus, UniProt P43236).
T1 construct: Active enzyme was produced by expressing cathepsin K in the form of a proenzyme; made in house; host or cells: Sf21 insect cells (baculovirus expression system)
T1 sequence (P43236 115-329): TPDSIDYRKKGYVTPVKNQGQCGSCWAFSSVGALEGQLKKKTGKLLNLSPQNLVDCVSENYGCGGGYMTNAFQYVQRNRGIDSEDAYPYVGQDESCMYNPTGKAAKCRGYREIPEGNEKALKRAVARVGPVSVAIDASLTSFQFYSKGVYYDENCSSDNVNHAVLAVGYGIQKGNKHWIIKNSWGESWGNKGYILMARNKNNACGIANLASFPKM
As to the kind of experiment: Measurement of cathepsin K inhibitory activity (fluorescent substrate Z-Gly-Pro-Arg-MCA). The settings on record: pH 6.0, 37° C., 30 minutes. The protocol: Active enzyme was produced by expressing cathepsin K in the form of a proenzyme in a cell culture from a baculovirus expression system using Sf21 insect cells, followed by incubating for 1 hour at 40° C.^1). Cathepsin K activity was measured based on decomposition of the fluorescent substrate Z-Gly-Pro-Arg-MCA (Peptide Institute, Inc.) in compliance with the method of Aibe, et al.^2). Namely, the decomposition of […] Z-Gly-Pro-Arg-MCA by cathepsin K was measured in 100 mM sodium/potassium phosphate, 1 mM EDTA and 8 mM cysteine at pH 6.0. The reaction was carried out for 30 minutes at 37° C., and stopped by the addition of 2×10^−5 M Calpeptin. After stopping the reaction, fluorescent intensity was measured at an excitation wavelength of 355 nm and measurement wavelength of 460 nm. Inhibition of cathepsin K by the compounds was examined using the reaction system described above.

The target of another experiment is T2, Human cathepsin B (Homo sapiens, UniProt P07858).
T2 construct: purchased Calbiochem Corp
The experiment in a line: Measurement of cathepsin B inhibitory activity (fluorescent substrate Z-Arg-Arg-MCA). The settings on record: for IC50: pH 6.0, 30° C., 30 minutes; for B/K (ratio of IC50 cathepsin B to IC50 cathepsin K): selectivity ratio B/K. The protocol: (§1) Human cathepsin B (Calbiochem Corp.) was used for measurement. Activity was measured based on decomposition of the fluorescent substrate Z-Arg-Arg-MCA (Peptide Institute, Inc.) in compliance with the method of Barrett, et al.^3). Namely, the decomposition of 20 mM Z-Arg-Arg-MCA by cathepsin B was measured in 100 mM sodium/potassium phosphate, 1 mM EDTA, 8 mM cysteine and 0.005% Brij35 at pH 6.0. The reaction was carried out for 30 minutes at 30° C., and stopped by the addition of 2×10^−5 M Calpeptin. After stopping the reaction, fluorescent intensity was measured at an excitation wavelength of 355 nm and measurement wavelength of 460 nm. Inhibition of cathepsin B by the compounds was examined using the reaction system described above.

Another experiment concerns the target T3, Human cathepsin L (Homo sapiens, UniProt P07711).
T3 construct: purchased Calbiochem Corp
The experiment in a line: Measurement of cathepsin L inhibitory activity (fluorescent substrate Z-Phe-Arg-MCA). The settings on record: for IC50: pH 5.5, 30° C., 30 minutes; for L/K (ratio of IC50 cathepsin L to IC50 cathepsin K): selectivity ratio L/K. The protocol:
as §1, with “cathepsin L” for “cathepsin B”, “substrate Z-Phe-Arg-MCA” for “substrate Z-Arg-Arg-MCA”, “[…] Z-Phe-Arg-MCA” for “mM Z-Arg-Arg-MCA”, “mM sodium acetate, 5” for “mM sodium/potassium phosphate, 1”, “EDTA, 4 mM urea,” for “EDTA,”, “pH 5.5.” for “pH 6.0.”

T3 sequence (P07711 114-333): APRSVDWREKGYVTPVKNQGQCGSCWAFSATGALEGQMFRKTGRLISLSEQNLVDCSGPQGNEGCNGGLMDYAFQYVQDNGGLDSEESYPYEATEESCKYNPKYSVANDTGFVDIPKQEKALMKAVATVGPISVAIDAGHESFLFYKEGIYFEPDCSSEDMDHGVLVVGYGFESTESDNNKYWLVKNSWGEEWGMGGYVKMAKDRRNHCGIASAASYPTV

Regarding `CCCC[C@@H](C=O)NC(=O)[C@H](CC(C)C)NC(=O)N1CCOCC1` [Reference Example 195, N—[N-(4-Morpholinylcarbonyl)-L-leucyl]-L-norleucinal], at Cathepsin K, it took 3 nM to reach half-maximal inhibition (IC50). Further, at Human cathepsin B, the IC50 was 13 nM and the “B/K (ratio of IC50 cathepsin B to IC50 cathepsin K)” value came out at 4.3. For the same compound, at Human cathepsin L, the IC50 was found to be 22 nM and the “L/K (ratio of IC50 cathepsin L to IC50 cathepsin K)” value was found to be 7.3.

On to `CC(C)[C@@H](C=O)NC(=O)C1(NC(=O)c2ccco2)CCCCC1` [Reference Example 191, N-[[1-[(2-Furanylcarbonyl)amino]cyclohexyl]carbonyl]-L-valinal], for which, at Cathepsin K, 0.54 nM corresponded to half-maximal inhibition (IC50). For the same compound, at Human cathepsin B, the IC50 worked out at 47 nM and the “B/K (ratio of IC50 cathepsin B to IC50 cathepsin K)” value turned out to be 87. Besides, on Human cathepsin L, the IC50 stood at 200 nM and the “L/K (ratio of IC50 cathepsin L to IC50 cathepsin K)” value turned out to be 370.

`CC(C)[C@@H](C=O)NC(=O)C1(NC(=O)OCc2ccccc2)CCCCC1` [Reference Example 189, N-[[1-[[(Phenylmethoxy)carbonyl]amino]cyclohexyl]carbonyl]-L-valinal] (Cbz-[Ac6c]-Val-aldehyde) yielded an IC50 at Cathepsin K of 1.7 nM. Further, at Human cathepsin B, inhibition was half-maximal at 390 nM (IC50) and the “B/K (ratio of IC50 cathepsin B to IC50 cathepsin K)” value came out at 230. At Human cathepsin L, the midpoint of inhibition, the IC50, lay at 680 nM and the “L/K (ratio of IC50 cathepsin L to IC50 cathepsin K)” value is 400.

In turn, `CC(C)C[C@H](NC(=O)OCc1ccccc1)C(=O)N[C@H](C=O)C(C)C` [Reference Example 193, N—[N-[(Phenylmethoxy)carbonyl]-L-leucyl]-L-valinal] (Cbz-Leu-Val-aldehyde) returned an IC50 against Cathepsin K of 1.9 nM. Besides, on Human cathepsin B, inhibition was half-maximal at 110 nM (IC50) and the “B/K (ratio of IC50 cathepsin B to IC50 cathepsin K)” value worked out at 58. In addition, on Human cathepsin L, the IC50 was determined as 140 nM and the “L/K (ratio of IC50 cathepsin L to IC50 cathepsin K)” value worked out at 74.

`CCCC[C@@H](C=O)NC(=O)C1(NC(=O)N2CCOCC2)CCCCC1` [Reference Example 192, N-[[1-[(4-Morpholinylcarbonyl)amino]cyclohexyl]carbonyl]-L-norleucinal] ({Morpholide-CO}-[Ac6c]-[Nle]-aldehyde): the IC50 was 22 nM against Cathepsin K, 260 nM on Human cathepsin B and 470 nM at Human cathepsin L. Besides, the “B/K (ratio of IC50 cathepsin B to IC50 cathepsin K)” value at Human cathepsin B is listed as 12. Further, the “L/K (ratio of IC50 cathepsin L to IC50 cathepsin K)” value on Human cathepsin L is on record as 21.

Turning to `CC(C)C[C@H](NC(=O)c1ccco1)C(=O)N[C@H](C=O)C(C)C` [Reference Example 196, N—[N-(2-Furanylcarbonyl)-L-leucyl]-L-valinal], the IC50 against Cathepsin K was found to be 1.9 nM; at Human cathepsin B, 57 nM; on Human cathepsin L, 67 nM. On Human cathepsin B, the “B/K (ratio of IC50 cathepsin B to IC50 cathepsin K)” value was determined as 30. Further, the “L/K (ratio of IC50 cathepsin L to IC50 cathepsin K)” value on Human cathepsin L is reported as 35.

With `CCCC[C@@H](C=O)NC(=O)C1(NC(=O)OCc2ccccc2)CCCCC1` [Reference Example 190, N-[[1-[[(Phenylmethoxy)carbonyl]amino]cyclohexyl]carbonyl]-L-norleucinal] (Cbz-[Ac6c]-[Nle]-aldehyde), at Cathepsin K, inhibition was half-maximal at 4 nM (IC50). Further, at Human cathepsin B, inhibition was half-maximal at 140 nM (IC50) and the “B/K (ratio of IC50 cathepsin B to IC50 cathepsin K)” value came to 35. Moreover, on Human cathepsin L, 200 nM corresponded to half-maximal inhibition (IC50) and the “L/K (ratio of IC50 cathepsin L to IC50 cathepsin K)” value was 50.

On Cathepsin K, `CCCC[C@@H](C=O)NC(=O)[C@H](CC(C)C)NC(=O)OCc1ccccc1` [Reference Example 194, N—[N-[(Phenylmethoxy)carbonyl]-L-leucyl]-L-norleucinal] showed a 50% inhibitory concentration (IC50) of 3.5 nM. At Human cathepsin B, the midpoint of inhibition, the IC50, lay at 40 nM and the “B/K (ratio of IC50 cathepsin B to IC50 cathepsin K)” value came out at 11. In addition, on Human cathepsin L, the IC50 stood at 53 nM and the “L/K (ratio of IC50 cathepsin L to IC50 cathepsin K)” value amounted to 15.
